Entries after “also recorded” stand apart in the source; their conditions may differ.
Key:
[1] = biological target: T1, 11β-HSD2 (Homo sapiens, UniProt P80365); assay: 11β-HSD2 activity in human kidney microsomes; format: biochemical; details: 100 μM
T1 construct: purchased Gentest (Woburn, MA); host or cells: human kidney microsomes (tissue)
T1 sequence (P80365 1-405): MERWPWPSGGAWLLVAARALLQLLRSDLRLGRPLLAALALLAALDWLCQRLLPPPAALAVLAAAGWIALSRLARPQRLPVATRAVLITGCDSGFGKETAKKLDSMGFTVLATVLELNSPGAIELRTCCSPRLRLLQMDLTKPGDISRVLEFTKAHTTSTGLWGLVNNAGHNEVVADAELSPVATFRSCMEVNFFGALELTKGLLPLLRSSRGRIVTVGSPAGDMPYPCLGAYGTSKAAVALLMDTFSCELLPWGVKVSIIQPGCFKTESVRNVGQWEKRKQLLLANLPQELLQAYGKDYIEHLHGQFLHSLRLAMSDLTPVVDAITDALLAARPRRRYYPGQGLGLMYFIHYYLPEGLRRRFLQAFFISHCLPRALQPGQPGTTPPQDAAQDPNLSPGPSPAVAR
Experimental: Measurement of 11β-HSD2 Activity in Rat, Mouse, and Human Kidney Microsomes
The 11β-HSD2 assay was based on rat, mouse, and human kidney microsomes, as previously described ([Ge et al., 2005]). In brief, the 11β-HSD2 activity assay tube contained 25 nM substrate (cortisol for humans, CORT for rats and mice). Renal microsomes (10 μg) were incubated with substrate and 0.2 mM NAD^+ for 30 min. Other procedures were described above. The percentage conversion of cortisol to cortisone (humans) or CORT to 11DHC (rats and mice) was calculated by dividing the radioactive count of an 11keto-steroid product by the total count associated with both substrate and product.

[2] = tested on: HFD-induced NAFLD mice; assay: HFD-induced NAFLD mouse model, WZS08 by gavage for 100 days; format: in vivo; details: for Body weight / Dorsal adipose weight / Epididymal adipose weight / Mesenteric adipose weight / Thymic adipose weight / Total hepatic weight: mean ± SEM
Experimental: The KM mice were randomly divided into six groups, including a regular chow (Group C), HFD (Group M) as a model control group, HFD supplemented with various doses of WZS08, 1 (Group M + W1), 2 (Group M + W2), and 4 (Group + W4) mg/kg, 20 mice per group. Mice were housed five animals per cage. Mice were maintained at a constant temperature (25 ± 3°C) for a 12-h light-dark cycle with free access to food and water. After a week of diet adaptation, the mice were fed with WZS08 dissolved in 1% sodium carboxymethyl cellulose (CMC-Na) or 1% CMC-Na for 100 days alone. Each mouse was gavaged daily with 0.5 ml vehicle (1% CMC-Na) or drug in 1%CMC-Na. By the end of the treatment, the mice were killed by CO2, and the weights of body, liver, epididymal fat, mesenteric fat, and dorsal fat were measured. […]
Quantitative Real-Time Polymerase Chain Reaction
Total RNA was isolated from mouse liver using Trizol kit according to the manufacturer’s instruction. To reduce genomic DNA contamination, total RNAs were treated with ribonuclease-free deoxyribonuclease I (Thermo Fisher Scientific, Waltham, MA, United States) for 1 h at 37°C. 1 μg RNA was used to synthesize the first strand cDNA by reverse transcription kit. qPCR was carried out using SYBR GREEN as an indicator using Bio-Rad real time PCR system. The standard curve method was adopted as previously described ([Lv et al., 2019]). The Ct values were recorded after a series of diluted standards of mouse liver cDNAs, and the linear equation of Ct values vs. logarithm [dilution of standards] was generated, and the concentration of the target mRNA was calculated according to their Ct value. The result was normalized to Gapdh (encoding GAPDH) and Rps16 as the internal controls. The mRNA levels of Acs2 (encoding acetyl-CoA synthetase2), Hsd11b1 (encoding 11β–HSD1), Ldlr (encoding LDLR), Plin2 (encoding PLIN2), and Plin3 (encoding PLIN3) were evaluated. There were no changes in Gapdh and Rps16 mRNA levels between groups and the test mRNA levels were adjusted to Gapdh. Primer information is listed in Supplementary Table S1.
Measurement of Serum Insulin and Corticosterone Levels and Blood Lipid Levels
On the last day of the experiment, the mice were fasted for 6 h (with free access to drinking water), and then blood and tissues were sampled. Blood samples were collected. The blood sample was centrifuged at 5000 rpm for 10 min to collect the serum, and the serum was frozen at -40°C until use. According to standard clinical protocols, the levels of serum glucose, low-density lipoprotein (LDL), high-density lipoprotein (HDL), total cholesterol, and triglyceride (TG) were measured using Hitachi 7600 biochemical analyzer (Hitachi, Japan). In addition, serum insulin and corticosterone levels were evaluated using the ultrasensitive mouse insulin ELISA kit (CrystalChem, IL, USA) and the commercially available corticosterone ELISA kit (Abnova, Taiwan, China) according to the manufacturers’ instructions.
Protein Expression Analysis
Total hepatic protein extract was obtained as previously described ([Lazaro et al., 2013]). The protein was separated by SDS–PAGE and transferred to a 0.2 μm PVDF membrane. The primary antibodies used were: 11β-HSD1 (rabbit polyclonal antibody, Abcam, catalog # ab39364; being blocked with 11β-HSD1 peptide, #ab101097, San Francisco, CA), ACS2 (Abcam, catalog # ab229958, San Francisco, CA, United States), and β-actin (ACTB, Cell signaling, Danvers, MA, United States). Goat anti-rabbit HRP was used as a secondary antibody. Finally, chemiluminescence emitted by the immunoreactive protein was detected by an ECL advance agent, and visualized with a MicroChemi Imaging system and qualified by a densitometry using AlphaEaseFC (ProteinSample, CA, United States). Relative protein levels were normalized by ACTB.
Before hematoxylin and eosin (HE) staining, the livers of KM mice were fixed in 10% formalin, dehydrated, and embedded in paraffin, as previously described ([Andres-Manzano et al., 2015]). […]

[3] = HFD mice, 4 mg/kg (M + W4), 100 days
[4] = HFD mice, 1, 2, and 4 mg/kg, vs Group M, qPCR
[5] = HFD plus 1 mg/kg WZS08 (M + W1), 100 days
[6] = HFD plus 2 mg/kg WZS08 (M + W2), 100 days
[7] = HFD plus 4 mg/kg WZS08 (M + W4), 100 days

O=C1/C(=C/c2c(F)cccc2F)CC/C1=C\c1c(F)cccc1F [WZS08, (2E,5E)-2,5-bis(2,6-difluorobenzylidene) Cyclopentanone]
effect on 11β-HSD2 activity, human [1]: did not affect; also recorded: almost no effect | Fabp4 expression ([2]; HFD mice, 1 mg/kg, 100 days): up-regulated | hepatic fat ratio ([2]; HFD mice, 1 mg/kg, 100 days): significantly reduced | serum cholesterol ([2]; HFD mice, 1 mg/kg, 100 days): significantly reduced | serum low-density lipoprotein ([2]; HFD mice, 1 mg/kg, 100 days): significantly reduced | serum triglycerides ([2]; HFD mice, 1 mg/kg, 100 days): significantly reduced | serum HDL level [2, 3]: greatly reduced | serum LDL level [2, 3]: greatly reduced | serum cholesterol level [2, 3]: greatly reduced | serum triglyceride level [2, 3]: greatly reduced | insulin index ([2]; HFD mice, 4 mg/kg, 100 days, vs HFD group): significantly lowered | serum insulin levels ([2]; HFD mice, 4 mg/kg, 100 days, vs HFD group, 4 mg/kg): significantly lowered; also recorded: completely reduced it to control level | liver lipid content (HE staining) ([2]; HFD mice, 1, 2, 4 mg/kg): remarkably reduced | insulin resistance (HOMA-IR) ([2]; HFD mice, 1, 2, 4 mg/kg, 100 days): dose-dependently reduced | body weight changes ([2]; HFD mice, 1, 2, 4 mg/kg, 100 days, vs HFD control): dose-dependently reduced | Acs2 expression in liver [2, 4]: up-regulated | Plin2 expression in liver [2, 4]: down-regulated | morphology of the non-alcoholic fatty liver ([2]; HFD mice, 100 days): significantly improved | liver fat content ([2]; HFD mice, doses of 2 and 4 mg/kg): significantly decreased | Plin2 expression ([2]; HFD mice, liver, 1 mg/kg, 100 days): down-regulated | Body weight [2, 5]: 52.46 ± 1.28 g | Dorsal adipose weight [2, 5]: 0.68 ± 0.092 g | Epididymal adipose weight [2, 5]: 2.05 ± 0.230 g | Mesenteric adipose weight [2, 5]: 0.64 ± 0.074 g | Thymic adipose weight [2, 5]: 0.08 ± 0.01 g | Total hepatic weight [2, 5]: 2.79 ± 0.12 g | Body weight [2, 6]: 50.25 ± 1.01 g | Dorsal adipose weight [2, 6]: 0.54 ± 0.049 g | Epididymal adipose weight [2, 6]: 1.52 ± 0.138 g | Mesenteric adipose weight [2, 6]: 0.55 ± 0.043 g | Thymic adipose weight [2, 6]: 0.06 ± 0.00 g | Total hepatic weight [2, 6]: 2.48 ± 0.06 g | Body weight [2, 7]: 49.00 ± 1.22 g | Dorsal adipose weight [2, 7]: 0.55 ± 0.070 g | Epididymal adipose weight [2, 7]: 1.54 ± 0.20 g | Mesenteric adipose weight [2, 7]: 0.54 ± 0.048 g | Thymic adipose weight [2, 7]: 0.077 ± 0.00 g | Total hepatic weight [2, 7]: 2.29 ± 0.06 g | blood glucose ([2]; HFD-treated mice, oral administration): did not show significant changes

From article PMC8072159, “5-Bis-(2,6-difluoro-benzylidene) Cyclopentanone Acts as a Selective 11β-Hydroxysteroid Dehydrogenase one Inhibitor to Treat Diet-Induced Nonalcoholic Fatty Liver Disease in Mice” (Frontiers in Pharmacology, 2021)
